Test results as given in ChEMBL document CHEMBL1201861, “Genomics of Drug Sensitity in Cancer screening data, Wellcome Trust Sanger Institute”.
Several values for one entry are separate records, joined by “and”; a condition that tells them apart may be missing. Equal entries are not always repeated.

Experiments:
Experiment in all cases: cells
KG-1 = type: functional, cell-based; settings: Homo sapiens;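 note: growth inhibition of KG-1 cells, read out by a cell viability assay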
Description: SANGER: Inhibition of human KG-1 cell growth in a cell viability assay.

CHL-1 = type: functional, cell-based, Homo sapiens;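 note: cell growth inhibition, read out with a cell viability assay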
Description: SANGER: Inhibition of human CHL-1 cell growth in a cell viability assay.

JEG-3 = type: functional, cell-based, Homo sapiens;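 note: growth inhibition of human JEG-3 cells, read out with a cell viability assay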
Description: SANGER: Inhibition of human JEG-3 cell growth in a cell viability assay.

HuTu80 = type: functional, cell-based, Homo sapiens, HUTU-80;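 note: growth inhibition of HuTu80 human cells, determined with a cell viability readout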
Description: SANGER: Inhibition of human HUTU-80 cell growth in a cell viability assay.

TK-10 = type: functional, cell-based, Homo sapiens;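 note: growth inhibition of TK-10 cells, read out in a cell viability assay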
Description: SANGER: Inhibition of human TK10 cell growth in a cell viability assay.

RPMI-8866 = type: functional, cell-based; settings: Homo sapiens
Description: SANGER: Inhibition of human RPMI-8866 cell growth in a cell viability assay.

SKG-IIIa = type: functional, cell-based, Homo sapiens;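 note: cell growth inhibition, read out with a cell viability assay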
Description: SANGER: Inhibition of human SKG-IIIa cell growth in a cell viability assay.

NCI-H2052 = type: functional, cell-based, Homo sapiens;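 note: growth inhibition of NCI-H2052 cells, read out with a cell viability assay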
Description: SANGER: Inhibition of human NCI-H2052 cell growth in a cell viability assay.

BB30-HNC = type: functional, cell-based, Homo sapiens;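 note: growth inhibition of the cultured cell line, read out by a cell viability assay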
Description: SANGER: Inhibition of human BB30-HNC cell growth in a cell viability assay.

CAL-72 = type: functional, cell-based, Homo sapiens;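 note: cell viability assay measuring inhibition of proliferation in the CAL-72 cell line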
Description: SANGER: Inhibition of human CAL-72 cell growth in a cell viability assay.

HL-60 = type: functional, cell-based; settings: Homo sapiens;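 note: growth inhibition of human HL-60 cells, read out with a cell viability assay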
Description: SANGER: Inhibition of human HL-60 cell growth in a cell viability assay.

SBC-5 = type: functional, cell-based, Homo sapiens;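 note: cell viability assay read-out, IC50 is the concentration that inhibits growth of the cells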
Description: SANGER: Inhibition of human SBC-5 cell growth in a cell viability assay.

ONS-76 = type: functional, cell-based, Homo sapiens;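 note: growth inhibition of human ONS-76 cells, read out with a cell viability assay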
Description: SANGER: Inhibition of human ONS-76 cell growth in a cell viability assay.

MDA-MB-157 = type: functional, cell-based, Homo sapiens
Description: SANGER: Inhibition of human MDA-MB-157 cell growth in a cell viability assay.

NCI-H1755 = type: functional, cell-based, Homo sapiens;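 note: cell viability readout used to measure growth inhibition of NCI-H1755 cells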
Description: SANGER: Inhibition of human NCI-H1755 cell growth in a cell viability assay.

GAK = type: functional, cell-based, Homo sapiens;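 note: cell growth inhibition read out by a cell viability assay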
Description: SANGER: Inhibition of human GAK cell growth in a cell viability assay.

SK-MEL-24 = type: functional, cell-based; settings: Homo sapiens;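 note: growth inhibition read out by a cell viability assay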
Description: SANGER: Inhibition of human SK-MEL-24 cell growth in a cell viability assay.

BFTC-905 = type: functional, cell-based, Homo sapiens
Description: SANGER: Inhibition of human BFTC-905 cell growth in a cell viability assay.

MPP-89 = type: functional, cell-based, Homo sapiens;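 note: growth inhibition of human MPP-89 cells, read out with a cell viability assay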
Description: SANGER: Inhibition of human MPP-89 cell growth in a cell viability assay.

NCI-H2347 = type: functional, cell-based, Homo sapiens;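 note: growth inhibition of the cell line, read out with a cell viability assay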
Description: SANGER: Inhibition of human NCI-H2347 cell growth in a cell viability assay.

MHH-PREB-1 = type: functional, cell-based; settings: Homo sapiens;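 note: cell viability assay measuring inhibition of proliferation of human MHH-PREB-1 cells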
Description: SANGER: Inhibition of human MHH-PREB-1 cell growth in a cell viability assay.

NCI-H661 = type: functional, cell-based, Homo sapiens;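 note: cell viability assay read-out, IC50 being the concentration that inhibits growth of the cells by half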
Description: SANGER: Inhibition of human NCI-H661 cell growth in a cell viability assay.

5637 = type: functional, cell-based, Homo sapiens
Description: SANGER: Inhibition of human 5637 cell growth in a cell viability assay.

HCC1395 = type: functional, cell-based, Homo sapiens;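 note: growth inhibition of HCC1395 cells, read out by a cell viability assay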
Description: SANGER: Inhibition of human HCC1395 cell growth in a cell viability assay.

TE-10 = type: functional, cell-based, Homo sapiens;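 note: growth inhibition of TE-10 cells, measured by a cell viability assay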
Description: SANGER: Inhibition of human TE-10 cell growth in a cell viability assay.

NCI-H596 = type: functional, cell-based, Homo sapiens;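 note: growth inhibition of NCI-H596 cells, read out with a cell viability assay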
Description: SANGER: Inhibition of human NCI-H596 cell growth in a cell viability assay.

HT-144 = type: functional, cell-based, Homo sapiens
Description: SANGER: Inhibition of human HT-144 cell growth in a cell viability assay.

8-MG-BA = type: functional, cell-based, Homo sapiens;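 note: growth inhibition of 8-MG-BA cells, read out with a cell viability assay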
Description: SANGER: Inhibition of human 8-MG-BA cell growth in a cell viability assay.

HCC1187 = type: functional, cell-based, Homo sapiens;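 note: growth inhibition of HCC1187 cells, read out with a cell viability assay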
Description: SANGER: Inhibition of human HCC1187 cell growth in a cell viability assay.

K5 = type: functional, cell-based, Homo sapiens
Description: SANGER: Inhibition of human K5 cell growth in a cell viability assay.

BXPC-3 = type: functional, cell-based, Homo sapiens;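 note: growth inhibition of human BxPC-3 cells, read out by a cell viability assay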
Description: SANGER: Inhibition of human BxPC-3 cell growth in a cell viability assay.

CTB-1 = type: functional, cell-based; settings: Homo sapiens
Description: SANGER: Inhibition of human CTB-1 cell growth in a cell viability assay.

T-24 = type: functional, cell-based, Homo sapiens;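 note: growth inhibition of T-24 cells, read out with a cell viability assay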
Description: SANGER: Inhibition of human T-24 cell growth in a cell viability assay.

KU812 cell line = type: functional, cell-based; settings: Homo sapiens;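 note: growth inhibition of KU812 cells, read out with a cell viability assay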
Description: SANGER: Inhibition of human KU812 cell growth in a cell viability assay.

HuCCT-1 = type: functional, cell-based, Homo sapiens, HuCCT1;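 note: growth inhibition of HuCCT-1 cells, read out by a cell viability assay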
Description: SANGER: Inhibition of human HuCCT1 cell growth in a cell viability assay.

IA-LM = type: functional, cell-based, Homo sapiens;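 note: cell viability assay measuring growth inhibition of human IA-LM cells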
Description: SANGER: Inhibition of human IA-LM cell growth in a cell viability assay.

D-263MG = type: functional, cell-based, Homo sapiens
Description: SANGER: Inhibition of human D-263MG cell growth in a cell viability assay.

OAW-42 = type: functional, cell-based, Homo sapiens;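 note: growth inhibition of OAW-42 cells, read out with a cell viability assay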
Description: SANGER: Inhibition of human OAW-42 cell growth in a cell viability assay.

NCI-H720 = type: functional, cell-based; settings: Homo sapiens;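 note: growth inhibition of human NCI-H720 cells determined by a cell viability assay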
Description: SANGER: Inhibition of human NCI-H720 cell growth in a cell viability assay.

IGROV-1 = type: functional, cell-based, Homo sapiens;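 note: reduction of IGROV-1 cell growth, read out with a viability assay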
Description: SANGER: Inhibition of human IGROV-1 cell growth in a cell viability assay.

NCI-H23 = type: functional, cell-based, Homo sapiens
Description: SANGER: Inhibition of human NCI-H23 cell growth in a cell viability assay.

NCI-H1651 = type: functional, cell-based, Homo sapiens;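 note: Read-out is a cell viability assay, with IC50 expressing inhibition of NCI-H1651 cell growth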
Description: SANGER: Inhibition of human NCI-H1651 cell growth in a cell viability assay.

P12-Ichikawa = type: functional, cell-based; settings: Homo sapiens
SNU-387 = type: functional, cell-based, Homo sapiens
Description: SANGER: Inhibition of human SNU-387 cell growth in a cell viability assay.

SCC-25 = type: functional, cell-based, Homo sapiens;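 note: growth inhibition of SCC-25 cells, measured with a cell viability assay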
Description: SANGER: Inhibition of human SCC-25 cell growth in a cell viability assay.

CP50-MEL-B = type: functional, cell-based, Homo sapiens;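 note: growth inhibition of the human cell line, measured with a cell viability read-out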
Description: SANGER: Inhibition of human CP50-MEL-B cell growth in a cell viability assay.

HCE-4 = type: functional, cell-based, Homo sapiens;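 note: cell viability assay measuring inhibition of growth in the human HCE-4 cell line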
Description: SANGER: Inhibition of human HCE-4 cell growth in a cell viability assay.

GI-1 = type: functional, cell-based, Homo sapiens;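 note: growth inhibition of human GI-1 cells, measured with a cell viability readout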
Description: SANGER: Inhibition of human GI-1 cell growth in a cell viability assay.

HOS = type: functional, cell-based, Homo sapiens;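 note: growth inhibition of human HOS cells, read out with a cell viability assay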
Description: SANGER: Inhibition of human HOS cell growth in a cell viability assay.

A 172 = type: functional, cell-based, Homo sapiens;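 note: growth inhibition of A172 cells, measured with a cell viability readout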
Description: SANGER: Inhibition of human A172 cell growth in a cell viability assay.

NCI-H747 = type: functional, cell-based; settings: Homo sapiens;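 note: growth inhibition of human NCI-H747 cells, read out by a cell viability assay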
Description: SANGER: Inhibition of human NCI-H747 cell growth in a cell viability assay.

CCOc1nc(NC(=O)Cc2cc(OC)ccc2OC)cc(N)c1C#N
IC50 (KG-1): > 10 µM | IC50 (CHL-1; Homo sapiens, CHL-1): > 10 µM | IC50 (JEG-3; Homo sapiens, JEG-3): > 10 µM | IC50 (HuTu80; Homo sapiens, HuTu80): > 10 µM | IC50 (TK-10; Homo sapiens, TK-10): > 10 µM | IC50 (RPMI-8866): > 10 µM | IC50 (SKG-IIIa; Homo sapiens, SKG-IIIa): > 10 µM | IC50 (NCI-H2052; Homo sapiens, NCI-H2052): > 10 µM | IC50 (BB30-HNC; Homo sapiens, BB30-HNC): > 10 µM | IC50 (CAL-72; Homo sapiens, CAL-72): > 10 µM | IC50 (HL-60): > 10 µM | IC50 (SBC-5; Homo sapiens, SBC-5): > 10 µM | IC50 (ONS-76; Homo sapiens, ONS-76): > 10 µM | IC50 (MDA-MB-157; Homo sapiens, MDA-MB-157): > 10 µM | IC50 (NCI-H1755; Homo sapiens, NCI-H1755): > 10 µM | IC50 (GAK; Homo sapiens, GAK): > 10 µM | IC50 (SK-MEL-24): > 10 µM | IC50 (BFTC-905; Homo sapiens, BFTC-905): > 10 µM | IC50 (MPP-89; Homo sapiens, MPP-89): > 10 µM | IC50 (NCI-H2347; Homo sapiens, NCI-H2347): > 10 µM | IC50 (MHH-PREB-1): > 10 µM | IC50 (NCI-H661; Homo sapiens, NCI-H661): > 10 µM | IC50 (5637; Homo sapiens): > 10 µM | IC50 (HCC1395; Homo sapiens, HCC1395): > 10 µM | IC50 (TE-10; Homo sapiens, TE-10): > 10 µM | IC50 (NCI-H596; Homo sapiens, NCI-H596): > 10 µM | IC50 (HT-144; Homo sapiens, HT-144): > 10 µM | IC50 (8-MG-BA; Homo sapiens, 8-MG-BA): > 10 µM | IC50 (HCC1187; Homo sapiens, HCC1187): > 10 µM | IC50 (K5; Homo sapiens, K5): > 10 µM | IC50 (BXPC-3; Homo sapiens, BXPC-3): > 10 µM | IC50 (CTB-1): > 10 µM | IC50 (T-24; Homo sapiens, T-24): > 10 µM | IC50 (KU812 cell line): > 10 µM | IC50 (HuCCT-1; Homo sapiens, HuCCT-1): > 10 µM | IC50 (IA-LM; Homo sapiens, IA-LM): > 10 µM | IC50 (D-263MG; Homo sapiens, D-263MG): > 10 µM | IC50 (OAW-42; Homo sapiens, OAW-42): > 10 µM | IC50 (NCI-H720): > 10 µM | IC50 (IGROV-1; Homo sapiens, IGROV-1): > 10 µM | IC50 (NCI-H23; Homo sapiens, NCI-H23): > 10 µM | IC50 (NCI-H1651; Homo sapiens, NCI-H1651): > 10 µM | IC50 (P12-Ichikawa): > 10 µM | IC50 (SNU-387; Homo sapiens, SNU-387): > 10 µM | IC50 (SCC-25; Homo sapiens, SCC-25): > 10 µM | IC50 (CP50-MEL-B; Homo sapiens, CP50-MEL-B): > 10 µM | IC50 (HCE-4; Homo sapiens, HCE-4): > 10 µM | IC50 (GI-1; Homo sapiens, GI-1): > 10 µM | IC50 (HOS; Homo sapiens, HOS): > 10 µM | IC50 (A 172; Homo sapiens, A 172): > 10 µM | IC50 (NCI-H747): > 10 µM

Cc1cc([C@@H](C)Nc2ccccc2C(=O)O)c2nc(N3CCOCC3)cc(=O)n2c1 [AZD-6482]
IC50 (KG-1): > 5.12 µM | IC50 (CHL-1; Homo sapiens, CHL-1): > 5.12 µM | IC50 (CHL-1; chl-1): 4.72 µM | IC50 (JEG-3; jeg-3): > 5.12 µM | IC50 (HuTu80; Homo sapiens, HuTu80): > 5.12 µM | IC50 (HuTu80; hutu-80): > 5.12 µM | IC50 (TK-10; tk-10): > 5.12 µM | IC50 (RPMI-8866): > 5.12 µM | IC50 (SKG-IIIa; skg-iiia): > 5.12 µM | IC50 (NCI-H2052; nci-h2052): > 5.12 µM and 0.915 µM | IC50 (BB30-HNC; Homo sapiens, BB30-HNC): 4.89 µM | IC50 (BB30-HNC; bb30-hnc): > 5.12 µM | IC50 (CAL-72; Homo sapiens, CAL-72): > 5.12 µM | IC50 (CAL-72; cal-72): > 5.12 µM | IC50 (HL-60): > 5.12 µM | IC50 (SBC-5; Homo sapiens, SBC-5): > 5.12 µM | IC50 (SBC-5; sbc-5): > 5.12 µM | IC50 (ONS-76; ons-76): > 5.12 µM | IC50 (MDA-MB-157; mda-mb-157): > 5.12 µM | IC50 (NCI-H1755; Homo sapiens, NCI-H1755): 3.27 µM | IC50 (NCI-H1755; nci-h1755): 3.31 µM | IC50 (GAK; gak): > 5.12 µM | IC50 (SK-MEL-24): > 5.12 µM | IC50 (BFTC-905; bftc-905): > 5.12 µM and 4.15 µM | IC50 (MPP-89; mpp-89): > 5.12 µM | IC50 (NCI-H2347; Homo sapiens, NCI-H2347): > 5.12 µM | IC50 (NCI-H2347; nci-h2347): > 5.12 µM | IC50 (MHH-PREB-1): > 5.12 µM | IC50 (NCI-H661; nci-h661): > 5.12 µM | IC50 5637: > 5.12 µM | IC50 (5637; Homo sapiens): > 5.12 µM | IC50 (HCC1395; Homo sapiens, HCC1395): > 5.12 µM | IC50 (HCC1395; hcc1395): > 5.12 µM | IC50 (TE-10; te-10): > 5.12 µM | IC50 (NCI-H596; nci-h596): > 5.12 µM | IC50 (HT-144; Homo sapiens, HT-144): > 5.12 µM | IC50 (HT-144; ht-144): > 5.12 µM | IC50 (8-MG-BA; 8-mg-ba): > 5.12 µM | IC50 (HCC1187; Homo sapiens, HCC1187): > 5.12 µM | IC50 (HCC1187; hcc1187): > 5.12 µM | IC50 (K5; Homo sapiens, K5): > 5.12 µM | IC50 (K5; k5): > 5.12 µM | IC50 (BXPC-3; bxpc-3): > 5.12 µM and 3.45 µM | IC50 (CTB-1): > 5.12 µM | IC50 (T-24; t-24): > 5.12 µM | IC50 (KU812 cell line): 1.6 µM | IC50 (HuCCT-1; hucct1): > 5.12 µM and 1.24 µM | IC50 (IA-LM; ia-lm): > 5.12 µM | IC50 (D-263MG; d-263mg): > 5.12 µM and 2.17 µM | IC50 (OAW-42; oaw-42): > 5.12 µM | IC50 (NCI-H720): > 5.12 µM | IC50 (IGROV-1; Homo sapiens, IGROV-1): 1.97 µM | IC50 (IGROV-1; igrov-1): 2.55 µM | IC50 (NCI-H23; nci-h23): > 5.12 µM | IC50 (NCI-H1651; Homo sapiens, NCI-H1651): > 5.12 µM | IC50 (NCI-H1651; nci-h1651): > 5.12 µM | IC50 (P12-Ichikawa): > 5.12 µM | IC50 (SNU-387; snu-387): > 5.12 µM | IC50 (SCC-25; scc-25): > 5.12 µM and 4.74 µM | IC50 (CP50-MEL-B; cp50-mel-b): > 5.12 µM | IC50 (HCE-4; hce-4): > 5.12 µM | IC50 (GI-1; gi-1): 1.32 µM and > 5.12 µM | IC50 (HOS; hos): > 5.12 µM | IC50 (A 172; a 172): > 5.12 µM | IC50 (NCI-H747): > 5.12 µM
